Where “and” joins values, the source holds several entries; their conditions need not be identical. Identical values can stand only once. Like-named read-outs stand apart in the source and are kept apart here.
How the values were obtained:
[1] = test system: Huh-7 cells; assay: Cytotoxicity assay (CCK-8), Huh-7 cells
[2] = test system: HCoV-OC43; assay: Antiviral activity in vitro, qRT-PCR, HCoV-OC43 in RD cells; type: cell-based; set-up: EC50 (OC43, RD): dose-response value per replicate: concentration or dose not given beside the values
[3] = test system: HCoV-229E; assay: Antiviral activity in vitro, viral RNA copies by qRT-PCR, HCoV-229E in Huh-7 cells; type: cell-based; set-up: EC50 (229E, Huh-7): dose-response value per replicate: scale not given here
[4] = test system: HCoV-OC43; set-up: species or system RD; HTS, protection from HCoV-OC43 induced cell death, luminescent cell viability (CellCounting-Lite 2.0), inhibition rate; settings: 24 h, 10 µM; inhibitor
[5] = test system: HCoV-229E; set-up: species or system Huh-7; HTS, protection from HCoV-229E induced cell death, luminescent cell viability (CellCounting-Lite 2.0), inhibition rate; settings: 24 h, 10 µM; inhibitor

Compound	selectivity index (SI) [1]	also measured
C=C(C)C(CC=C(C)C)Cc1c(O)cc(OC)c2c1O[C@H](c1ccc(O)cc1OC)CC2=O (stereo partly drawn) [(2S)-2’-methoxykurarinone]	–	selectivity index (SI) ([1]; CC50 versus EC50, HCoV-229E in Huh-7 and HCoV-OC43 in RD cells): below 25
C[S@@+]([O-])CCCCN=C=S [(R)-sulforaphane]	below 25	–
C[C@@H]1[C@H](O)[C@@H](C)/C=C/C=C/C=C/C=C/C=C/C=C/C=C/[C@H](O[C@@H]2O[C@H](C)[C@@H](O)[C@H](N)[C@@H]2O)C[C@@H]2O[C@](O)(C[C@@H](O)C[C@@H](O)[C@H](O)CC[C@@H](O)C[C@@H](O)CC(=O)O[C@H]1C)C[C@H](O)[C@H]2C(=O)O [amphotericin B, reference compound]	below 25	–
COc1ccc(-c2oc3c(CC=C(C)C)c(O)cc(O)c3c(=O)c2O[C@@H]2O[C@@H](C)[C@H](O)[C@@H](O)[C@H]2O)cc1 [baohuoside I]	below 25	–
COC[C@@H]1CCCN1S(=O)(=O)c1ccc2c(c1)C(=O)C(=O)N2 [caspase-3/7 inhibitor I, (S)-(+)-5-[1-(2-methoxymethylpyrrolidinyl)sulfonyl]isatin, reference compound]	–	suppression of viral replication ([2]; HCoV-OC43, cell line not printed (S6C Fig)): not effective
CN[C@@H](C)[C@H]1[C@H](O)C[C@@]2(C)[C@@H]3CC[C@H]4C(C)(C)[C@@H](NC)CC[C@@]45C[C@@]35CC[C@]12C [cyclovirobuxine D]	below 25	EC50 (OC43, RD): dose-response value per replicate [2]: 99.7 (3×) and 96.3 and 96.5 and 96.2 and 73.1 and 73 (2×) and 5.5 and 61.2 and 59.8 and 79.4 and 78.3 and 79.9 and 42.6 and 41.4 and 42; EC50 (229E, Huh-7): dose-response value per replicate [3]: 87.1 and 91.6 and 92.1 and 83.4 and 77.4 and 88.7 and 0.1 (10×) and 27 and 13.3
COC(=O)[C@H]1[C@H]2C[C@@H]3c4[nH]c5ccccc5c4CCN3C[C@H]2C[C@@H](OC(=O)c2cc(OC)c(OC)c(OC)c2)[C@@H]1OC [deserpidine, reference compound]	below 25	–
CC(=O)OC/C1=C\[C@H]2[C@@H](OC(=O)/C=C/c3ccccc3)[C@@H](C)C[C@]2(OC(C)=O)C(=O)/C(C)=C/[C@@H]2[C@H](CC1)C2(C)C [euphorbia factor L7a]	below 25	–
C=C1C(=O)[C@@]23[C@@H]4OC5O[C@@]2(O)[C@@H](O)[C@@H]2C(C)(C)CC[C@@H](O)[C@]52[C@@H]3CC[C@@H]14 [ponicidin]	below 25	–
C=C(C)[C@H](CC=C(C)C)Cc1c(O)cc(O)c2c1O[C@H](c1ccc(O)cc1O)CC2=O [sophoraflavanone G]	below 25	–
C[C@H]1CCC[C@@H](O)CCC/C=C/c2cc(O)cc(O)c2C(=O)O1 [β-Zearalenol]	–	OC43 Inhibition rate [4]: 39.8; 229E Inhibition rate [5]: 60.6
